# Data from US20230270753A1, “COMBINATIONS OF GABAA ALPHA 5 AGONISTS AND SV2A INHIBITORS AND METHODS OF USING IN THE TREATMENT OF COGNITIVE IMPAIRMENT” (AGENEBIO, INC., priority 2020, published 2023).
# “Also recorded” adds a separate entry of the source. Like-named read-outs stand apart in the source and are kept apart here.
# Columns and labels:
# [1] = type: physicochemical
# Method: XRPD patterns were collected with a PANalytical X'Pert PRO MPD or a PANalytical Empyrean diffractometer using an incident beam of Cu radiation produced using an Optix long, fine-focus source. An elliptically graded multilayer mirror was used to focus Cu Kα X-rays through the specimen and onto the detector. Prior to the analysis, a silicon specimen (NIST SRM 640e) was analyzed to verify the observed position of the Si 111 peak is consistent with the NIST-certified position. A specimen of the sample was sandwiched between 3-μm-thick films and analyzed in transmission geometry. A beam-stop, short antiscatter extension, and antiscatter knife edge were used to minimize the background generated by air. Soller slits for the incident and diffracted beams were used to minimize broadening from axial divergence. Diffraction patterns were collected using a scanning position-sensitive detector (X'Celerator) located 240 mm from the specimen and Data Collector software v. 5.5.
# [2] = type: physicochemical; settings: solvent-mediated slurries, ambient temperature (Form E also 55° C. and 77° C.)
# Method: Interconversion experiments were performed to identify the most thermodynamically stable anhydrous form of Compound 1 (Table 19). […] The choice of solvent affects the kinetics of polymorph conversion and not the thermodynamic relationship between polymorphic forms.
# Various combinations of Forms B, E, F, and Material D were slurried with Form A at ambient and elevated temperatures (for experiments involving Form E). Different solvent systems were used and included a variety of water activities. Saturated solutions were generated and then added to the mixtures composed of approximately equivalent quantities of the forms. The mixtures were slurried for a particular duration of time and the solids harvested and analyzed by XRPD.
# [3] = system: Aged-Impaired rats (AI rats); experiment: Radial Arm Maze task, 2-hr delay, acute brivaracetam or seletracetam (Example 4); type: in vivo, rat; settings: doses 0.0625-4 mg/kg i.p., 30-40 min prior to test; repeated measures ANOVA
# Text: All rats were screened in a standardized assessment of spatial cognition prior to the studies with experimental treatments. That background assessment used a well-established Morris Water Maze protocol. The MWM protocol was substantially the same as the one described in Example 1. See, also, Gallagher et al., Behav. Neurosci. 107:618-626, (1993). Briefly, the rats were trained for eight days (three trials per day) to locate a camouflaged escape platform that remained at the same location throughout training in a water maze. Every sixth trial consisted of a probe trial (free swim with no escape platform) that served to assess the development of a spatially localized search for the escape platform. During these probe trials, a learning index was generated from the proximity of the rat to the escape platform and was used to define impairment in the aged rats. The learning index is the sum of weighted proximity scores obtained during probe trials, with low scores reflecting a search near the escape platform and high scores reflecting searches farther away from the platform (Gallagher et al, 1993). Cue training (visible escape platform) occurred on the last day of training to test for sensorimotor and motivational factors independent of spatial learning. […]
# MAM-treated rats = settings: cited from earlier work
# [4] = Differential scanning calorimetry / thermogravimetry; type: physicochemical; settings: DSC 10° C./min
# Method: DSC was performed using a Mettler-Toledo DSC3+ differential scanning calorimeter. A tau lag adjustment is performed with indium, tin, and zinc. The temperature and enthalpy are adjusted with octane, phenyl salicylate, indium, tin and zinc. The adjustment is then verified with octane, phenyl salicylate, indium, tin, and zinc. The sample was placed into a hermetically sealed aluminum DSC pan, the weight was accurately recorded, and the sample was inserted into the DSC cell. A weighed aluminum pan configured as the sample pan was placed on the reference side of the cell. The pan lid was pierced prior to sample analysis. The samples were analyzed from −25° C. to 250° C. at 10° C./min.
# Thermogravimetric analyses were performed using a Mettler-Toledo TGA/DSC3+ analyzer. Temperature calibration was performed using calcium oxalate, indium, tin, and zinc. The sample was placed in an aluminum pan. The pan was hermetically sealed, the lid was pierced, and the pan was then inserted into the TG furnace. A weighed aluminum pan configured as the sample pan was placed on the reference platform. The furnace was heated under nitrogen. Samples were analyzed from 25° C. to 350° C. at 10° C./min.
# [5] = Dynamic vapor sorption (DVS); type: physicochemical; settings: for hygroscopicity class: DVS isotherm; for form of the material recovered from the DVS experiment by XRPD: post DVS
# Method: Dynamic vapor sorption data was collected on a Surface Measurement System DVS Intrinsic instrument. The samples were not dried prior to analysis. Sorption and desorption data were collected over a range from 5% to 95% RH in 10% RH increments under a nitrogen purge. The equilibrium criteria used for the analyses were 0.001 dm/dt weight change in 5 minutes with a minimum step time of 30 minutes and maximum equilibration time of 180 minutes with a 3-minute data logging interval. Data were not corrected for the initial moisture content of the sample. The samples were identified as having low, limited or significant hygroscopicity based on the definitions in the below table.
# [6] = system: memory-impaired aged rats; experiment: Water maze after chronic brivaracetam by osmotic mini-pump (Example 4); type: in vivo, rat; settings: brivaracetam 2 mg/kg/day by osmotic mini-pump, 14 days, probe test
# Method: The radial arm maze experiments used acute administration of seletracetam (0-4 mg/kg), brivaracetam (0-4 mg/kg), or saline vehicle given by intraperitoneal injection (in a volume of 1 ml/kg) 30-40 min prior to test sessions.
# Rats were trained and tested in a novel water maze environment to assess the effect of drug treatment. The water maze used here was housed in a different building and was surrounded by curtains with a novel set of patterns relative to the maze used for initial assessment of cognitive status. The training protocol consisted of 6 trials per day for 2 days to locate a submerged escape platform. On each trial, a rat was released in the maze from one of four equally spaced starting positions around the perimeter of the pool. The starting position varied from trial to trial. […] The rat was then removed from the platform and placed in a holding cage for another 40 s before the next trial. Approximately 24 hr after the last training trial, a probe test in the absence of the escape platform was given to assess spatial memory.
smiles,measurement,setting,value
COCc1nnc2n1Cc1c(C#Cc3cnc(OC)s3)ncn1-c1ccc(Cl)cc1-2 [Material D],stability of the form on ambient storage,"[1]; 7 weeks of ambient storage, mixture with Form A",Material D still remained
same,relative thermodynamic stability between crystalline forms,[2],metastable relative to Form A
"CC[C@@H](C(N)=O)N1C[C@H](C=C(F)F)CC1=O [seletracetam, (2S)-2-[(4S)-4-(2,2-difluoroethenyl)-2-oxopyrrolidin-1-yl]butanamide]",number of errors in the retention phase after the 2-hr delay,[3],significant effect as a function of dose
NC1=N[C@H](O)[C@H]2[C@H]3O[C@]4(O)O[C@@H]([C@@H](O)[C@@]2(N1)[C@@H]4O)[C@]3(O)CO [tetrodotoxin],DA neuron population activity,"MAM-treated rats; rat, in vivo",completely reversed the elevated DA neuron population activity
same,amphetamine-induced locomotor behavior,"MAM-treated rats; rat, in vivo",normalized the augmented amphetamine-induced locomotor behavior
COCc1nnc2n1Cc1c(C#Cc3cnc(OC)s3)ncn1-c1ccc(Cl)cc1-2 [Form E],relative thermodynamic stability between crystalline forms,[2],metastable relative to Form A
COCc1nnc2n1Cc1c(C#Cc3cnc(OC)s3)ncn1-c1ccc(Cl)cc1-2 [Form B],onset of DSC exotherm due to decomposition,[4],about 190 °C
same,relative thermodynamic stability between crystalline forms,[2],metastable relative to Form A
COCc1nnc2n1Cc1c(C#Cc3cnc(OC)s3)ncn1-c1ccc(Cl)cc1-2 [Form F],onset of DSC exotherm due to decomposition,[4],above 120 °C
same,stability of the form under vacuum,[1]; 5 days under vacuum at ambient temperature,remain unchanged
same,hygroscopicity class,[5]; 5% to 95% RH,limited hygroscopicity
same,weight gain on sorption,"[5]; DVS, 5-95% RH",1.8%
same,weight loss upon desorption,"[5]; DVS, with significant hysteresis",1.5%
same,form of the material recovered from the DVS experiment by XRPD,[5],still Form F
C#Cc1ccc2c(c1)C(c1ccccc1F)=N[C@H](C)c1c(C(=O)OCC)ncn1-2 [SH-053-2′F—R—CH3],number of spontaneously active DA neurons in the ventral tegmental area (VTA),"MAM-treated rats; MAM rats, administered systemically or infused into the ventral HPC",reduces the number of spontaneously active DA neurons
same,locomotor response to amphetamine,MAM-treated rats; MAM-treated rats,is reduced
COCc1nnc2n1Cc1c(C#Cc3cnc(OC)s3)ncn1-c1ccc(Cl)cc1-2 [Form C],onset of DSC exotherm due to decomposition,[4],190 °C
same,stability of the form on ambient storage,[1]; 9 weeks under ambient conditions,remain unchanged
same,stability of the form on heating,[1]; overnight exposure to 80° C.,desolvate to Form B
COCc1nnc2n1Cc1c(C#Cc3cnc(OC)s3)ncn1-c1ccc(Cl)cc1-2 [Form A],relative thermodynamic stability between crystalline forms,[2],"more thermodynamically stable than Form B and Material D at ambient temperature and Form E at ambient temperature, 55° C., and 77 °C"
same,relative thermodynamic stability between crystalline forms,[2]; listed as Form A of Compound 1,superior stability
same,hygroscopicity class,[5]; 5% to 95% RH,limited hygroscopicity; also recorded: low hygroscopicity
same,weight change through the sorption/desorption cycle,"[5]; DVS, 5% to 95% RH",~0.3%
same,form of the material recovered from the DVS experiment by XRPD,[5],identified as the same as the starting material
"CCC[C@@H]1CC(=O)N([C@@H](CC)C(N)=O)C1 [brivaracetam, (2S)-2-[(4R)-2-oxo-4-propylpyrrolidin-1-yl]butanamide]",number of errors in the retention phase after the 2-hr delay,[3],significant effect as a function of dose
same,time in the target annulus vs vehicle-treated rats,[6],significantly more time in the target annulus
same,time in the target quadrant vs vehicle-treated rats,[6],significantly more time in the target quadrant
same,spatial bias for the target quadrant compared to the other control quadrants,[6]; n=3/group,significant spatial bias
